The target of one experiment is T1, ADP/ATP translocase 2 (Homo sapiens, UniProt P05141).
T1 sequence (P05141 whole entry): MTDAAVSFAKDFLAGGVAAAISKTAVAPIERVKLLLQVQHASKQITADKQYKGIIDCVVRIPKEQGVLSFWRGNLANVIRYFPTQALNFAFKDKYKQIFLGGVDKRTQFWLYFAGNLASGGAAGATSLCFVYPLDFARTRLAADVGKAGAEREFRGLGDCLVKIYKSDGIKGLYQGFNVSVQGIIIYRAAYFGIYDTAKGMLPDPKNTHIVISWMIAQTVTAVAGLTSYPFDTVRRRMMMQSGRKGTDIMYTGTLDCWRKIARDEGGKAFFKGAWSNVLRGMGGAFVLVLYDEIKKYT

Experiment [1] deals with T2, Very long-chain specific acyl-CoA dehydrogenase, mitochondrial (Homo sapiens, UniProt P49748).
T2 sequence (P49748 whole entry): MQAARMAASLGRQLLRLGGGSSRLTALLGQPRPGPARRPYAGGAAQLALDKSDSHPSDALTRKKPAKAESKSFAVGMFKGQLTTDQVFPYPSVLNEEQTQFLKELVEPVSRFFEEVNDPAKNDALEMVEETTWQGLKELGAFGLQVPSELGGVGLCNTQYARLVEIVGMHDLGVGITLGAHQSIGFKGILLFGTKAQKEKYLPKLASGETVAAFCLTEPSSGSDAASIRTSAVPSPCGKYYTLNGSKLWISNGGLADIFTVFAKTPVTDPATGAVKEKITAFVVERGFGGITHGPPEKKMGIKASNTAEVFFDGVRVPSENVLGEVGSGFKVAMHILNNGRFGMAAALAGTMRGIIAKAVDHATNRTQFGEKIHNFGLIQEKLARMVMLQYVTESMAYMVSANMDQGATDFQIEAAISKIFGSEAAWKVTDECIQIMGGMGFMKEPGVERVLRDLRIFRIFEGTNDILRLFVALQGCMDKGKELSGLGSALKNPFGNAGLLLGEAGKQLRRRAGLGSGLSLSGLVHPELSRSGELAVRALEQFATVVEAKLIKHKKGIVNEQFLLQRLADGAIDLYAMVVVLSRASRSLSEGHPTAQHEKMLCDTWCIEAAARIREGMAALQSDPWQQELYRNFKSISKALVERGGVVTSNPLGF

In experiment [2] the target is T3, Tyrosine--tRNA ligase, cytoplasmic (Homo sapiens, UniProt P54577).
T3 sequence (P54577 whole entry): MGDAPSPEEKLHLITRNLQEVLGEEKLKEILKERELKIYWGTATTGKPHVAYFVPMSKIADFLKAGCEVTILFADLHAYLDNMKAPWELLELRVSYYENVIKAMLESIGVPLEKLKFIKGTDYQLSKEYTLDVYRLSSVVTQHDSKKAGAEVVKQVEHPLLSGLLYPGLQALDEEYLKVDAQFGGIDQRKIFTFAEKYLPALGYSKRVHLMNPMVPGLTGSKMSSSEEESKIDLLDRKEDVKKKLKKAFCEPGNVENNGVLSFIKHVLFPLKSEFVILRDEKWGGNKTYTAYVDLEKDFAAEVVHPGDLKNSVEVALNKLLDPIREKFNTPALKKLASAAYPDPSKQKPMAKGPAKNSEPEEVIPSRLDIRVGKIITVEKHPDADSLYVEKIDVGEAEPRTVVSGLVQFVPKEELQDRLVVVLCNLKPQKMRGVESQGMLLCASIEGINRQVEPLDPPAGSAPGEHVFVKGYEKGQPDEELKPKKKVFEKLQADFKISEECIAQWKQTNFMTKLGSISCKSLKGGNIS

For experiment [3], the target named is Serine/threonine-protein kinase MRCK alpha (Homo sapiens, UniProt Q5VT25).
Serine/threonine-protein kinase MRCK alpha, sequence (Q5VT25 whole entry): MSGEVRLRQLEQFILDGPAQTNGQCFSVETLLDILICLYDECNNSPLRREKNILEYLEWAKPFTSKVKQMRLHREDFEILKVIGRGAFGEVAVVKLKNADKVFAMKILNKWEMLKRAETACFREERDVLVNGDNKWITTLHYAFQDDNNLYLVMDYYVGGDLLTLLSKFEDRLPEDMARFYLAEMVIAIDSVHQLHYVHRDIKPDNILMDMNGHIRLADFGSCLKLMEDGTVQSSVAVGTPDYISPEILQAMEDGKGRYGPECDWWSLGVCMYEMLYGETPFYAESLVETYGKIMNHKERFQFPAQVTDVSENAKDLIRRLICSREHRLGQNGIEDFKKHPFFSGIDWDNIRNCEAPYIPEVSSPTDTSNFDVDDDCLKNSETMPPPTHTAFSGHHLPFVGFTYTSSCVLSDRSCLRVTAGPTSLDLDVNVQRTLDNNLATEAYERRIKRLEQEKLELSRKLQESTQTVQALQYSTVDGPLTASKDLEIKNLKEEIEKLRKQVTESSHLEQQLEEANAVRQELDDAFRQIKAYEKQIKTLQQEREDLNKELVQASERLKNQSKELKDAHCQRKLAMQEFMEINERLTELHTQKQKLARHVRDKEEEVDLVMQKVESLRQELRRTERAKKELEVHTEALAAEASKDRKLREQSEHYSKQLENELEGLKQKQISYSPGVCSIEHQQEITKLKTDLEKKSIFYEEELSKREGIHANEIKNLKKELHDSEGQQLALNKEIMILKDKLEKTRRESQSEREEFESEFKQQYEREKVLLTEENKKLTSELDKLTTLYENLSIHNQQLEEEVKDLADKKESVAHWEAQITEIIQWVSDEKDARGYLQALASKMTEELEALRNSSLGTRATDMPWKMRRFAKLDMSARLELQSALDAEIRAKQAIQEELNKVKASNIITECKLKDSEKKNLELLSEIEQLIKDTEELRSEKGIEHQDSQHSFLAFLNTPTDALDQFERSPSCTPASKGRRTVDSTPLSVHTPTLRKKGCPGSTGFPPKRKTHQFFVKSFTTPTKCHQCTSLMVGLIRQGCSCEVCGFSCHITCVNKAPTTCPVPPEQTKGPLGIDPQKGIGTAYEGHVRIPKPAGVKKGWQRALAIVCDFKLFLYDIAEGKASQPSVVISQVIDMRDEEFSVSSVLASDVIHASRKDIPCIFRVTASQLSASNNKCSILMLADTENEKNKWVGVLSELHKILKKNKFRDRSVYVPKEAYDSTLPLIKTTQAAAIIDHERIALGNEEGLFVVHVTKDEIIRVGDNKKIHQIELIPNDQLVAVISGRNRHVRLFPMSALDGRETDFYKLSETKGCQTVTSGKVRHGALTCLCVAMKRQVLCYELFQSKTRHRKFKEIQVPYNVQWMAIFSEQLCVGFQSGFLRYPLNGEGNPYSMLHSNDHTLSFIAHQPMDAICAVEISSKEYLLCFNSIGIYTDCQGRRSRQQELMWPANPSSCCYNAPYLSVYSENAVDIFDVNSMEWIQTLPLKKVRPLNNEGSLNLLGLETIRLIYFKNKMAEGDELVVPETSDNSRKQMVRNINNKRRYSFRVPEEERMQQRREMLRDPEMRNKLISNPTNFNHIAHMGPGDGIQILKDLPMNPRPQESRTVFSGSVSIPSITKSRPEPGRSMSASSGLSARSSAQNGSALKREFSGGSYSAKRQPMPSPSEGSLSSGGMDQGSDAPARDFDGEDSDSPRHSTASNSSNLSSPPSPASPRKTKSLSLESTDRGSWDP
Experiment [4] concerns the target AP2-associated protein kinase 1 (Homo sapiens, UniProt Q2M2I8).
In experiment [5] the target is T4, Cyclin-G-associated kinase (Homo sapiens, UniProt O14976).
T4 sequence (O14976 whole entry): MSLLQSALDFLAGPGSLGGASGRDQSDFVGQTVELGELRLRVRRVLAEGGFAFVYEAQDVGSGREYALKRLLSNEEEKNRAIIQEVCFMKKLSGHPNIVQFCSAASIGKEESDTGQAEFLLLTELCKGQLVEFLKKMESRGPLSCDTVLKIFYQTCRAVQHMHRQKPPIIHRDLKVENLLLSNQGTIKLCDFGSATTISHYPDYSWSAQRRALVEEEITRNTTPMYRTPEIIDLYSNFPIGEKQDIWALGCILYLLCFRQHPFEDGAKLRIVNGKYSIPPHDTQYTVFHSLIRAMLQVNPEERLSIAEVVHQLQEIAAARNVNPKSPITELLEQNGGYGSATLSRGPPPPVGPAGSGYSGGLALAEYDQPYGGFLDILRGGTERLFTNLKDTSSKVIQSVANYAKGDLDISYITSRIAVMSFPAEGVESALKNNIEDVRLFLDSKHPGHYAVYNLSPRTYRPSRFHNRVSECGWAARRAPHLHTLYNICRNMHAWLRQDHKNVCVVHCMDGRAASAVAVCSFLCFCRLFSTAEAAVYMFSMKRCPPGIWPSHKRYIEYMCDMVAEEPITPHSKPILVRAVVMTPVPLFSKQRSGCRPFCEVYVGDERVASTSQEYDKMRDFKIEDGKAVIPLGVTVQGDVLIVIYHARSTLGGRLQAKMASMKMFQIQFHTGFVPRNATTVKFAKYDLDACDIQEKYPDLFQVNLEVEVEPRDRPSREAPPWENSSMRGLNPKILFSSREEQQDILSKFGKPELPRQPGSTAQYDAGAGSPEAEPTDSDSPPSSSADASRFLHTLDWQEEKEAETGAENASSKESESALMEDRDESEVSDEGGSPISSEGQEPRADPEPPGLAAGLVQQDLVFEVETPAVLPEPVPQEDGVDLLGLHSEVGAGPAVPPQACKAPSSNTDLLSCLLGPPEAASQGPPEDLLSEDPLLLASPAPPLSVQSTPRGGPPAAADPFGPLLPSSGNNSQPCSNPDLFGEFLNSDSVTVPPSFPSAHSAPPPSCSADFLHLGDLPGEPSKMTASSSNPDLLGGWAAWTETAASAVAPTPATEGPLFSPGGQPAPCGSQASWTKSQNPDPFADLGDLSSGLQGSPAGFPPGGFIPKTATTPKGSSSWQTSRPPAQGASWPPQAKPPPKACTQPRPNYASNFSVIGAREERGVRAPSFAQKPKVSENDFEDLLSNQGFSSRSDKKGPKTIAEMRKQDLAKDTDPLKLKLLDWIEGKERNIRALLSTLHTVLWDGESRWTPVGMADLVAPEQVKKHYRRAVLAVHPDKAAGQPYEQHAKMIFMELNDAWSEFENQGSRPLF

For experiment [6], the target named is Mitogen-activated protein kinase kinase kinase kinase 5 (Homo sapiens, UniProt Q9Y4K4).
Mitogen-activated protein kinase kinase kinase kinase 5, sequence (Q9Y4K4 whole entry, canonical isoform): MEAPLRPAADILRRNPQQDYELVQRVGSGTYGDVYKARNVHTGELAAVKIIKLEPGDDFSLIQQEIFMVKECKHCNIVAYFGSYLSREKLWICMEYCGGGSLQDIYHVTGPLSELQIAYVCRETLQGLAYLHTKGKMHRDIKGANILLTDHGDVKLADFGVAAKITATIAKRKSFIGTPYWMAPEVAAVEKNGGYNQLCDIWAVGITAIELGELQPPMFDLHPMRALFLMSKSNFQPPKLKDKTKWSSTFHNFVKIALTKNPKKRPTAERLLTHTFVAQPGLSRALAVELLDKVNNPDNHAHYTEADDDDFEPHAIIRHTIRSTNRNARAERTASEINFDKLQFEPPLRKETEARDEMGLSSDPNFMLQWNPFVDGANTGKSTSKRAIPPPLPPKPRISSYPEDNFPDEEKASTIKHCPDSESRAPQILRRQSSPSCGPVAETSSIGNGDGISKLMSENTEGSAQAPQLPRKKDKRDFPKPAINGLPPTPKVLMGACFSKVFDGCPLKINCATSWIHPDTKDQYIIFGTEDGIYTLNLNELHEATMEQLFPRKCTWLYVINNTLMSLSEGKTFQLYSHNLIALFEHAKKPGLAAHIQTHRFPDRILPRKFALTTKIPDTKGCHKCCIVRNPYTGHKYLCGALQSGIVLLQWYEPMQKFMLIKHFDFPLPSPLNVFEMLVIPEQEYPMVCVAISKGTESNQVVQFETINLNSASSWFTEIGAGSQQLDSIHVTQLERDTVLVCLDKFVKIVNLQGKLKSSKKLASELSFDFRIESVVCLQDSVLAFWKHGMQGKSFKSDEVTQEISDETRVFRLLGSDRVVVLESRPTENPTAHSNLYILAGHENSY
Experiment [7] addresses Casein kinase I isoform epsilon (Homo sapiens, UniProt P49674).

Calls of active or inactive are those of the source.

The term Kd denotes the concentration at which binding is half-saturated.
Note: in the data inactive means no Kd found up to 30 µM.

Casein kinase I isoform epsilon, sequence (P49674 whole entry, canonical isoform): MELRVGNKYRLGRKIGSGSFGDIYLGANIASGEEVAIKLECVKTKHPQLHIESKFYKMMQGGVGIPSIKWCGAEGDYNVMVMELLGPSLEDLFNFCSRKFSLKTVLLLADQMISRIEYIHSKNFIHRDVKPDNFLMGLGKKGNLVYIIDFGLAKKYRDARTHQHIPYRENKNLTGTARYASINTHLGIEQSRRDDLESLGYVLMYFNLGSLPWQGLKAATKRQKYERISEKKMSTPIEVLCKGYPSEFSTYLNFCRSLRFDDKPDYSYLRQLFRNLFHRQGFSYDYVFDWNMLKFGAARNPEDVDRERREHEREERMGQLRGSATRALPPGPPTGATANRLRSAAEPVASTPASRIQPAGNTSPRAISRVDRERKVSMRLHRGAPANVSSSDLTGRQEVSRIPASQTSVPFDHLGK
AP2-associated protein kinase 1, sequence (Q2M2I8 whole entry): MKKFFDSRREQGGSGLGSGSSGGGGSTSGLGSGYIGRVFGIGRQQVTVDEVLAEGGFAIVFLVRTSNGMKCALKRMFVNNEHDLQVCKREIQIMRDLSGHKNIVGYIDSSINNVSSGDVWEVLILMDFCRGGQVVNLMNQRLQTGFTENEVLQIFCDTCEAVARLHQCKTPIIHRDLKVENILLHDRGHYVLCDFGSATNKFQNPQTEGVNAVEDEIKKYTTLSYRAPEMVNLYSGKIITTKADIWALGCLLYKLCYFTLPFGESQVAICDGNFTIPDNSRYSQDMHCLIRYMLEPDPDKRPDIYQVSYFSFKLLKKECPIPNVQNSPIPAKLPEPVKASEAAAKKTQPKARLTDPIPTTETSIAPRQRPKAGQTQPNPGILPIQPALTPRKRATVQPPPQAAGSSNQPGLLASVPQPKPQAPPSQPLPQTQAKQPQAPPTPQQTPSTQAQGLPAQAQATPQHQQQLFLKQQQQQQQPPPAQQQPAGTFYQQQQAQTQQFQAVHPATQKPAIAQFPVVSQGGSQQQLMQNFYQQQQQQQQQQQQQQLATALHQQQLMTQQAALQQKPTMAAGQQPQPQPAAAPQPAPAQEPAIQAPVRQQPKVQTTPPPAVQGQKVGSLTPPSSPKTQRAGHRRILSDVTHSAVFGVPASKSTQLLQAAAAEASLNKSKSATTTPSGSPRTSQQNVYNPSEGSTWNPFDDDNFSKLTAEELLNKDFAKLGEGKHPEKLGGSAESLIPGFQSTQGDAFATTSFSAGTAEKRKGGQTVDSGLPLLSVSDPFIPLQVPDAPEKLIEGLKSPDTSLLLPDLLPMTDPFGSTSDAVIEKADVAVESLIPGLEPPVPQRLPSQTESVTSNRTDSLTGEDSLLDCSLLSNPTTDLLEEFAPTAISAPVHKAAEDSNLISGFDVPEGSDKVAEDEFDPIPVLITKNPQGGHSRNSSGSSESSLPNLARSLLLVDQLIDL

As for `COc1cc2nccc(Oc3ccc(NC(=O)NC4CC4)c(Cl)c3)c2cc1C(N)=O` [LENVATINIB], the Kd (at ADP/ATP translocase 2; in experiment [1]; in experiment [2]; in experiment [3]; in experiment [4]) was > 30 µM (inactive) each time.

Consider `CO[C@H]1C[C@@H]2CC[C@@H](C)[C@@](O)(O2)C(=O)C(=O)N2CCCC[C@H]2C(=O)O[C@H]([C@H](C)C[C@@H]2CC[C@@H](OCCO)[C@H](OC)C2)CC(=O)[C@H](C)/C=C(\C)[C@@H](O)[C@@H](OC)C(=O)[C@H](C)C[C@H](C)/C=C/C=C/C=C/1C` [EVEROLIMUS], for which the Kd (in experiment [5]; at ADP/ATP translocase 2; in experiment [1]; in experiment [2]; in experiment [6]; in experiment [7]) was > 30 µM (inactive) each time. The Kd in experiment [3] and in experiment [4] was > 30 µM (inactive) each time.

Turning to `Cc1ccc(NC(=O)c2ccc(CN3CC[C@H](N(C)C)C3)c(C(F)(F)F)c2)cc1Nc1nccc(-c2cncnc2)n1` [BAFETINIB], the Kd (in experiment [5]; on ADP/ATP translocase 2; in experiment [1]; in experiment [2]; in experiment [6]; in experiment [7]) was > 30 µM (inactive) throughout. For the same compound, the Kd in experiment [3] and in experiment [4] was > 30 µM (inactive) each time.

Take `CC(C)Nc1cc(-c2c[nH]c(C(=O)N[C@H](CO)c3cccc(Cl)c3)c2)c(Cl)cn1` [ULIXERTINIB]: the Kd (in experiment [5]; on ADP/ATP translocase 2; in experiment [1]; in experiment [2]; in experiment [6]; in experiment [7]) was > 30 µM (inactive) each time. Further, the Kd in experiment [3] and in experiment [4] was > 30 µM (inactive) each time.

For `O=C(Nc1cccc(Cl)c1)Nc1ncc(CCNc2ncnc3ccsc23)s1` [SNS-314], the Kd (in experiment [5]; on ADP/ATP translocase 2; in experiment [1]; in experiment [2]; in experiment [7]; in experiment [4]) was > 30 µM (inactive) each time.

As to `Cc1cn(-c2cc(NC(=O)c3ccc(C)c(Nc4nccc(-c5cccnc5)n4)c3)cc(C(F)(F)F)c2)cn1` [NILOTINIB], the Kd (on ADP/ATP translocase 2; in experiment [1]; in experiment [2]) was > 30 µM (inactive) each time.

As to `CCS(=O)(=O)N1CC(CC#N)(n2cc(-c3ncnc4[nH]ccc34)cn2)C1` [BARICITINIB], the Kd (on ADP/ATP translocase 2; in experiment [1]; in experiment [2]; in experiment [6]; in experiment [7]; in experiment [3]) was > 30 µM (inactive) throughout. In addition, in experiment [4], the Kd was 0.046 µM (active).

For the compound `Nc1nc(N)c2nc(-c3cccc(O)c3)c(-c3cccc(O)c3)nc2n1` [TG100-115], the Kd was > 30 µM (inactive) in experiment [5], > 30 µM (inactive) at ADP/ATP translocase 2, 1.69 µM in experiment [1] and > 30 µM (inactive) in experiment [2].

`CN1CCN(c2ccc3nc(-c4c(N)c5c(F)cccc5[nH]c4=O)[nH]c3c2)CC1` [DOVITINIB]: the Kd (on ADP/ATP translocase 2; in experiment [1]; in experiment [2]) was > 30 µM (inactive) throughout.

With `Cc1cc(Nc2cc(N3CCN(C)CC3)nc(/C=C/c3ccccc3)n2)n[nH]1` [ENMD-2076], the Kd (in experiment [5]; at ADP/ATP translocase 2; in experiment [1]; in experiment [2]; in experiment [7]) was > 30 µM (inactive) throughout.

On to `Cc1nc(N)sc1-c1ccnc(Nc2ccc(N3CCOCC3)cc2)n1` [CYC-116], for which the Kd in experiment [5] is 0.196 µM (active); at ADP/ATP translocase 2 it was > 30 µM (inactive); in experiment [1] it was > 30 µM (inactive); in experiment [2] it was > 30 µM (inactive); in experiment [7] it was 0.841 µM (active); in experiment [4], 0.006 µM (active).

Turning to `CCn1c(-c2nonc2N)nc2c(C#CC(C)(C)O)ncc(OC[C@H]3CCCNC3)c21` [GSK-690693], the Kd (on ADP/ATP translocase 2; in experiment [1]; in experiment [2]) was > 30 µM (inactive) in each case.

Consider `COc1cc2nccc(Oc3ccc(NC(=O)Nc4cc(C)on4)c(Cl)c3)c2cc1OC` [TIVOZANIB], for which the Kd (in experiment [5]; at ADP/ATP translocase 2; in experiment [1]; in experiment [2]; in experiment [3]; in experiment [4]) was > 30 µM (inactive) throughout.

Regarding `CN1CCC(CNc2ccc3ncc(-c4cccc(OC(F)(F)F)c4)n3n2)CC1` [SGI-1776], the Kd is 8.63 µM (active) in experiment [5]; > 30 µM (inactive) at ADP/ATP translocase 2; > 30 µM (inactive) in experiment [1]; > 30 µM (inactive) in experiment [2]; > 30 µM (inactive) in experiment [6]; > 30 µM (inactive) in experiment [7]. For the same compound, in experiment [4], the Kd is > 30 µM (inactive).

As to `CN1N=C(N)c2cn([C@@H]3O[C@H](COP(=O)(O)O)[C@@H](O)[C@H]3O)c3ncnc1c23` [TRICIRIBINE PHOSPHATE], the Kd (in experiment [5]; at ADP/ATP translocase 2; in experiment [1]; in experiment [2]; in experiment [6]; in experiment [7]) was > 30 µM (inactive) in each case. Further, in experiment [4], the Kd is > 30 µM (inactive).

For the origin of these results see ChEMBL document CHEMBL3991601, “The target landscape of clinical kinase drugs” (Science, 2017).
